In series [1] the test system is mice with bleomycin-induced pulmonary fibrosis. Description: Survival rate of mice with bleomycin-induced pulmonary fibrosis. Format: in vivo, C57BL/6 mice. The settings on record: twice a week. On the procedure:
(§1) Male C57BL/6 mice were fasted overnight, then anesthetized with 45 mg/kg sodium pentobarbital by injection intraperitoneally (i.p.), and intratracheally injected with bleomycin at a dose of 3 U/kg. The specific operation steps are as follows: cut the neck skin of the mouse with as little trauma as possible, expose the trachea with the assistance of elbow ophthalmic forceps, puncture the trachea and inject about 50 μL of bleomycin into the trachea with a microsyringe, rotate the mouse quickly and stand it upright for 5 minutes in order to make bleomycin evenly enter the left and right lobe, thereby constructing an animal model. The whole operation was performed at a surgical table at about […]. Mice in the sham operation group were intratracheally injected with an equal amount of physiological saline for injection.
The animal model with pulmonary fibrosis was prepared according to the method described in Example 2. The peptide therapy was started from the 10th day after modeling (the treatment groups are shown in Table 3), and the time was calculated from the 10th day after modeling to count the mortality rate. The death situation of each group of experimental animals was counted and calculated daily. […] The survival rate is the percentage of the number of mice that survived accounting for the number of mice in the whole group. Results are shown in FIG. 6-1, FIG. 6-2 and Table 4. […] In FIG. 6-1 and FIG. 6-2, “##” represents that P value is less than 0.01 when the survival rate of administration group was compared with that of the sham operation group; “*” represents that P value is less than 0.05 when the survival rate of administration group was compared with that of the bleomycin group; “**” represents that P value is less than 0.01 when the survival rate of administration group was compared with that of bleomycin group; and “i.p.” refers to intraperitoneal injection.
The animal model of pulmonary fibrosis was prepared according to the method described in Example 2. The polypeptide treatment was started from the 10th day after modeling (the treatment groups are shown in Table 9), and the time was calculated from the 10th day after modeling to count the mortality rate. The mortality rate of each group of experimental animals was recorded and calculated daily. If none of the animals in a group died, the survival rate of the group is 100%. If all the animals in a group died, the survival rate is 0%. […] In FIG. 12, “##” represents that P value is less than 0.01 when the survival rate of the administration groups were compared with that of the sham operation group; “*” represents that P value is less than 0.05 and “**” represents that P value is less than 0.01 when the survival rate of the administration groups were compared with bleomycin group.

Series [2] can be described thus: α-helix ratio of polypeptides by circular dichroism. Format: physicochemical. The settings on record: PBS solution, 1 mg/mL. The method, then:
The α-helix ratio of the polypeptide was measured by a circular dichromatograph (purchased from Jasco, Japan). The polypeptides MR2, S1, S2, S3, S4, S5, S6, S7, S8, S9, S10 and S11 prepared in Example 1 were dissolved in PBS solution, and the working concentration of the circular dichromatograph was adjusted to 1 mg/mL. […] Among them, the α-helix ratio refers to the percentage of the number of peptide segments of the polypeptide that maintains the alpha helix of the secondary structure in the peptide segments of the total polypeptide.
For orientation: CD spectra are sensitive to the conformation of chiral molecules.

Series [3] deals with mice with bleomycin-induced pulmonary fibrosis. Description: Lung weight index in mice with pulmonary fibrosis. It counts as in vivo, C57BL/6 mice. The settings on record: 2 mg/kg i.p., after 28 days, lung weight (mg) divided by body weight (g). The method, then: as §1
Pulmonary fibrosis model was prepared according to the method described in Example 2, and administered in groups according to Table 3. After 28 days, the lungs of the mice were finely stripped and weighed, and a lung weight index was obtained from dividing the lung weight (mg) by the body weight (g) of the mice. […] In FIG. 7, “##” represents that P value is less than 0.01 when the lung weight index of administration group was compared with that of the sham operation group; “*” represents that P value is less than 0.05 when the lung weight index of administration group was compared with that of the bleomycin group; “**” represents that P value is less than 0.01 when the lung weight index of administration group was compared with that of bleomycin group.
Pulmonary fibrosis models were made according to the method described in Example 2 and administered in groups according to Table 9. After 28 days, the lungs of the mice were finely stripped and weighed, and the lung weight (mg) was divided by the body weight (g) of the mice to obtain a lung weight index. […] In FIG. 13, “##” represents that P value is less than 0.01 when the lung weight index of the administration groups were compared with that of the sham operation group; “*” represents that P value is less than 0.05 and “**” represents that P value is less than 0.01 when the lung weight index of the administration groups were compared with bleomycin group.

The target of another series is T1, TRB3 protein (Homo sapiens, UniProt Q96RU7).
T1 construct: purchased RD
T1 sequence (Q96RU7 1-358): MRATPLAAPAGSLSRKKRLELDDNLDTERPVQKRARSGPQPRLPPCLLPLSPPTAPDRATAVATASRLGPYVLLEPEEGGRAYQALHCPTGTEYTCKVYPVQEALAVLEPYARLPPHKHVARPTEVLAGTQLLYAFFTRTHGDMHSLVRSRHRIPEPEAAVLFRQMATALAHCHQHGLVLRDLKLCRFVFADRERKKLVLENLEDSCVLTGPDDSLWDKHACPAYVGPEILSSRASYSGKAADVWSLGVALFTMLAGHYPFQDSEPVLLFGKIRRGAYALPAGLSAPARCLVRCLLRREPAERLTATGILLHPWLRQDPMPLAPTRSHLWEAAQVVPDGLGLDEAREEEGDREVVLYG
Description: Surface plasmon resonance (Biacore T200) binding of polypeptides to TRB3 protein. The settings on record: SPR, FIG. 4-1, 4-2 and Table 1. The method, then: The surface plasmon resonance experiment was carried out in a surface plasmon resonator Biacore T200, and the procedure was carried out in accordance with the instructions of the plasma resonator Biacore T200. Specific steps are as follows:
1. Purified TRB3 protein (purchased from RD) was coupled to a CMS chip (purchased from GE) by amidogen, and the unbound protein was eluted at a flow rate of 10 μL/min. The surface of the chip was equilibrated for 2 hours. Among them, the specific steps of amidogen coupling, elution and equilibration refer to the relevant instruction of GE's CMS chip.
2. 250 μL of the S1-S11 and MR2 polypeptide fragments prepared in Example 1 with different concentrations (800, 400, 200, 50, 12.5, 6.25, and 3.125 nM) were automatically injected, and the entire surface plasmon resonance experiment was carried out at 25° C. The buffer used was HBS-EP buffer [0.01 M HEPES, 0.15 M NaCl, 3 mM EDTA and 0.005% (w/w) surfactant TWEEN20]. Biacore T200's built-in analysis software was used to simulate the binding curves of different concentrations of peptides to TRB3.

The mark [4] stands for this setting: Table 3 groups: 2 mg/kg i.p., 10th to 28th day after modeling.
The mark [5] stands for this setting: Table 9 groups (S19-S21): 2 mg/kg i.p., 10th to 28th day after modeling.
The mark [6] stands for this setting: Table 9 groups (S19-S21): 2 mg/kg i.p.

Bridge positions count the residues as written; N and C are the ends. Square brackets hold non-standard residues; d marks the D form. Peptide text beside a SMILES is read from it. S5 = C=CCCC[C@](C)(N)C(=O)O

`CSCC[C@@H]1NC(=O)[C@@](C)(NC(=O)[C@@H](N)Cc2c[nH]cn2)CCCC=CCCC[C@@](C)(C(=O)N[C@H](C(=O)N[C@@H](CS)C(=O)N[C@@H](C)C(=O)N[C@@H](CCCCN)C(=O)N[C@@H](CCCCN)C(=O)N[C@@H](CC(C)C)C(=O)N[C@@H](CCCCN)C(=O)N[C@@H](CCCCN)C(=O)N[C@@H](CCCNC(=N)N)C(=O)O)[C@@H](C)O)NC(=O)[C@H](CS)NC(=O)[C@H](C)NC1=O` [S2, His-S5-Met-Ala-Cys-S5-Thr-Cys-Ala-Lys-Lys-Leu-Lys-Lys-Arg] (H-H[S5]MAC[S5]TCAKKLKKR-OH; staple 2-6; N-terminus and C-terminus assumed): in series [1] (setting [4]), the “Survival rate (%) 7 days” value is reported as 100%, the “Survival rate (%) 14 days” value is reported as 100%, the “Survival rate (%) 21 days” value was determined as 80% and the “Survival rate (%) 28 days” value worked out at 80%. For the same compound, in series [2], the “α-helicity (%)” value is reported as 25.7% and the “α-helix ratio compared with polypeptide MR2 (in words)” value was “significantly higher than that of polypeptide MR2”. Also, in series [3] (Table 3 groups), the Lung weight index turned out to be 9.35. Also, the “interaction with the TRB3 protein (in words)” value (shortened to “interaction”) at TRB3 protein was “interacted with the TRB3 protein”.
Regarding `CSCC[C@H](NC(=O)[C@H](CC(C)C)NC(=O)[C@@H](N)Cc1c[nH]cn1)C(=O)N[C@@H](C)C(=O)N[C@@H](CS)C(=O)N[C@@H](Cc1ccccc1)C(=O)N[C@H](C(=O)N[C@@H](CS)C(=O)N[C@@H](C)C(=O)N[C@@H](CCCCN)C(=O)N[C@@H](CCCCN)C(=O)N[C@@H](CC(C)C)C(=O)N[C@@H](CCCCN)C(=O)N[C@@H](CCCCN)C(=O)N[C@@H](CCCNC(=N)N)C(=O)O)[C@@H](C)O` [MR2] (H-HLMACFTCAKKLKKR-OH; N-terminus and C-terminus assumed), in series [1] (setting [4]), the “Survival rate (%) 7 days” value is 100%, the “Survival rate (%) 14 days” value was determined as 93.33%, the “Survival rate (%) 21 days” value was 73.33% and the “Survival rate (%) 28 days” value is 66.67%. For the same compound, the “α-helicity (%)” value in series [2] stood at 0.0%. The compound further gave a Lung weight index in series [3] (Table 3 groups) of 11.4625. Besides, the “interaction” value at TRB3 protein was “interacted with the TRB3 protein”.
For “S21: chimeric polypeptide Antp-MR2, amino acid sequence SEQ ID NO: 21 (RQIKIWFQNRRMKWKKGGHLMACFTCAKKLKKR; chimeric polypeptide Antp-MR2 S21)”, in series [1] (setting [5]), the “Survival rate (%) 7 days” value was 100%. In series [1] (setting [6]), the “Survival rate (%) 14 days” value worked out at 100%, the “Survival rate (%) 21 days” value is 75% and the “Survival rate (%) 28 days” value is 75%. The same compound displayed a Lung weight index in series [3] (Table 9 groups) of 11.2125.
On to `CSCC[C@H](NC(=O)[C@H](CC(C)C)NC(=O)[C@@H](N)Cc1c[nH]cn1)C(=O)N[C@@H](C)C(=O)N[C@@H](CS)C(=O)N[C@@H](Cc1ccccc1)C(=O)N[C@@]1(C)CCCC=CCCC[C@@](C)(C(=O)N[C@@H](CC(C)C)C(=O)N[C@@H](CCCCN)C(=O)N[C@@H](CCCCN)C(=O)N[C@@H](CCCNC(=N)N)C(=O)O)NC(=O)[C@H](CCCCN)NC(=O)[C@H](C)NC(=O)[C@H](CS)NC1=O` [S7, His-Leu-Met-Ala-Cys-Phe-S5-Cys-Ala-Lys-S5-Leu-Lys-Lys-Arg] (H-HLMACF[S5]CAK[S5]LKKR-OH; staple 7-11; N-terminus and C-terminus assumed), for which, in series [1] (setting [4]), the “Survival rate (%) 7 days” value is 100%, the “Survival rate (%) 14 days” value was 100%, the “Survival rate (%) 21 days” value turned out to be 93.33% and the “Survival rate (%) 28 days” value is given as 93.33%. In series [2], the “α-helicity (%)” value worked out at 51.0% and the “α-helix ratio compared with polypeptide MR2 (in words)” value is on record as “significantly higher than that of polypeptide MR2”. In series [3] (Table 3 groups), the Lung weight index is given as 7.675. For the same compound, on TRB3 protein, the “interaction” value is on record as “interacted with the TRB3 protein”.
Turning to “S19: chimeric polypeptide Pep2-MR2, amino acid sequence SEQ ID NO: 19 (HLYVSPWGGHLMACFTCAKKLKKR; chimeric polypeptide Pep2-MR2 S19)”, the “Survival rate (%) 7 days” value in series [1] (setting [5]) is 100%. In addition, in series [1] (setting [6]), the “Survival rate (%) 14 days” value came out at 100%, the “Survival rate (%) 21 days” value was found to be 90% and the “Survival rate (%) 28 days” value amounted to 90%. The same compound returned a Lung weight index in series [3] (Table 9 groups) of 8.675.
For the compound “S20: chimeric polypeptide TAT-MR2, amino acid sequence SEQ ID NO: 20 (YGRKKRRQRRRGGHLMACFTCAKKLKKR; chimeric polypeptide TAT-MR2 S20)”, the “Survival rate (%) 7 days” value in series [1] (setting [5]) was 100%. For the same compound, in series [1] (setting [6]), the “Survival rate (%) 14 days” value came out at 91.67%, the “Survival rate (%) 21 days” value stood at 75% and the “Survival rate (%) 28 days” value came out at 75%. Also, in series [3] (Table 9 groups), the Lung weight index is recorded as 10.0625.

The values above are taken from patent US20210179680A1, “POLYPEPTIDE, DERIVATIVES THEREOF, AND APPLICATION THEREOF IN PREPARATION OF DRUGS HAVING RESISTANCE TO PULMONARY FIBROSIS” (priority 2016, published 2021).
